# Measurements from patent publication US10744457B2, “Electrochemical separator” (Hamilton Sundstrand Corporation, priority 2017, dated 2020).
# Assay: susceptibility to oxidation in the presence of free oxygen
# Format: physicochemical
# Conditions: inferred from redox potential
# Source text: Another example would be an anthraquinone functionalized with sulfonate groups, such as 2,7 anthraquinone disulfonic acid. The 1,2 benzoquinone disulfonic acid has a higher reduction-oxidation potential than anthraquinone (approximately 0.8V versus 0.2V, as determined against a reversible hydrogen electrode).
smiles,measurement,value
"O=C1c2ccc(S(=O)(=O)O)cc2C(=O)c2cc(S(=O)(=O)O)ccc21 [2,7 anthraquinone disulfonic acid]",oxidation in the presence of oxygen,more susceptible to oxidation in the presence of free oxygen
